Legend:
CCR7 = CCR7 (Homo sapiens, UniProt P32248); test: human activated T cell chemotaxis induced by CCL19; format: cell-based; design: endogenous in cells; conditions: 1, 10 or 100 nM compound
Procedure: The preparation of human activated T cells was performed as described previously. Human peripheral blood lymphocytes were prepared by Ficoll-Hypaque centrifugation, depleted of monocytes, and stimulated for 2 days with 1 µg/ml PHA (Murex Diagnostics, Dartford, U.K.) and 100 U/ml IL-2 (Sigma, St. Louis, MO) in RPMI 1640 supplemented with 10% fetal bovine serum (FBS), 2 mM L-glutamine, 100 µg/ml streptomycin, 100 U/ml penecillin, 1% non-essential amino acids and 2 mM HEPES. Following stimulation, peripheral blood lymphocytes were cultured in above media containing 5% conditioned media (Sigma) for up to 15 days.
Human activated T cell chemotaxis assays were performed using 96-well ChemoTx® microplates (Neuro Probe, Inc., Gaithersburg, MD) with a 3 µm filter as per manufacturers' instructions. Activated T cells were washed with RPMI medium twice, and then resuspended in the medium containing 20% FBS. 1.25 × 10^5 cells/reaction were mixed with indicated concentrations of the compound and placed on the filter. The compound and chemokines were mixed and placed in the bottom well of the ChemoTx system. […] The number of migrated cells was measured using the Cell Titer Glo Luminescent Assay from Promega (Madison, WI) as per vendor's instructions. Chemotaxis is expressed as a chemotactic index, which is a ratio versus the one without chemokines (spontaneous migration). […]

Lewis rats = test: rat experimental autoimmune encephalomyelitis; format: in vivo; conditions: p.o. in 0.4% methylcellulose, varying doses; data not shown
Procedure: Male Lewis rats challenged by injection of 50 µl (30 mg) of a guinea pig spinal cord homogenate in CFA into one footpad. The animals were treated starting at day 0 and oral dosing continued throughout the 3-week disease course, with varying amounts of SCH 546738 in 0.4% methylcellulose (MC) p.o. Animals were scored for disease severity: 0, no clinical signs; 1, flaccid tail; 2, hind limb weakness; 3, complete hind limb paralysis; 4, complete hind limb paralysis, forelimb weakness or paralysis; 5, death.
For CIA and EAE models, unpaired t-tests were performed using GraphPad InStat version 5.0.1 for Windows 98, GraphPad Software, San Diego California USA (http://www.graphpad.com). Statistical significance was evaluated by comparing the vehicle-treated group with the experimental group using unpaired t-test. Differences were considered significant when p values were <0.05.
Experimental autoimmune encephalomyelitis (EAE) is an animal model for human MS and development of disease is dependent on T cell infiltration into the CNS. In the murine model of EAE, SCH 546738 was tested in combination with interferon-β (IFN-β), a current first-line therapeutic for the amelioration of relapsing-remitting MS. C57BL/6 mice were primed by intravenous injection of pertussis toxin on day 0 and day 2. […] Disease progression was monitored by a scoring system as described in Methods. […]

Chain of CCR7 (P32248 25-378): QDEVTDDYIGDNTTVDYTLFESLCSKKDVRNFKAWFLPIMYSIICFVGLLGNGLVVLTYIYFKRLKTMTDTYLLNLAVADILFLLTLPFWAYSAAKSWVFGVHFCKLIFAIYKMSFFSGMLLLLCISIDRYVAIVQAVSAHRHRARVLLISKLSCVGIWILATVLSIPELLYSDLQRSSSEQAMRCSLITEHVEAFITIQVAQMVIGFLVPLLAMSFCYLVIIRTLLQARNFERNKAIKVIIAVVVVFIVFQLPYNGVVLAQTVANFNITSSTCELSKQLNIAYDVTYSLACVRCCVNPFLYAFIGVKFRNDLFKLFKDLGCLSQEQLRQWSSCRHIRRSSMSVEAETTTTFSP

CC[C@H]1CN(c2nc(N)c(C(N)=O)nc2Cl)CCN1C1CCN(Cc2ccc(Cl)cc2)CC1 [SCH 546738]
effect on T cell chemotaxis induced by the CCR7 ligand CCL19 (CCR7): did not affect
effect on disease severity (Lewis rats): reduced the severity of the disease in a dose-dependent manner
